This is an account of results in ChEMBL document CHEMBL3120061, “Novel spiroketal pyrrolidine GSK2336805 potently inhibits key hepatitis C virus genotype 1b mutants: from lead to clinical compound” (J Med Chem, 2014).

The structures appear in SMILES notation.

Experiment [1] concerns Hepatitis C virus. Briefly: Antiviral activity against Hepatitis C virus genotype 1b in Huh-luc/neo-ET replicon cells after 48 hrs by replicon-based luciferase assay. It is filed as functional, organism-based, Hepacivirus hominis. Background: In antiviral work, replicon cells carry a viral genome segment that copies itself.
In experiment [2] the test system is Hepatitis C virus. Briefly: Antiviral activity against Hepatitis C virus genotype 1a in Huh-luc/neo-ET replicon cells after 48 hrs by replicon-based luciferase assay. It is filed as functional, organism-based, Hepacivirus hominis. As to conditions: subtype 1a.

As a reminder, the EC50 is the midpoint of the concentration-response curve. High values mean a less potent agent, low ones a more potent agent.

In the case of `COC(=O)N[C@H](C(=O)N1CCC[C@H]1c1ncc(-c2ccccc2)[nH]1)C(C)C`, the EC50 in the experiment on Hepatitis C virus [1] is 200 nM; with Hepatitis C virus [2] it was 501 nM.

For the compound `COC(=O)N[C@H](C(=O)N1CCC[C@H]1c1ncc(-c2ccc(-c3ccc(-c4cnc([C@@H]5CC6(CN5C(=O)[C@@H](NC(=O)OC)C(C)C)SCCS6)[nH]4)cc3)cc2)[nH]1)C(C)C`, the 50% effective concentration (EC50) is 0.00398 nM in the experiment with Hepatitis C virus [1] and 0.0794 nM in the experiment with Hepatitis C virus [2].

Regarding `CC[C@H](NC(=O)OC)C(=O)N1CC2(C[C@H]1c1ncc(-c3ccc(-c4ccc(-c5cnc([C@@H]6CCCN6C(=O)[C@@H](NC(=O)OC)C(C)C)[nH]5)cc4)cc3)[nH]1)SCCS2`, the EC50 is 0.00398 nM with Hepatitis C virus [1] and 0.0631 nM in the experiment on Hepatitis C virus [2].

In the case of `COC(=O)NCC(=O)N1CC2(C[C@H]1c1ncc(-c3ccc(-c4ccc(-c5cnc([C@@H]6CCCN6C(=O)[C@@H](NC(=O)OC)C(C)C)[nH]5)cc4)cc3)[nH]1)SCCS2`, the 50% effective concentration (EC50) in the experiment on Hepatitis C virus [1] was 0.00501 nM; in the experiment with Hepatitis C virus [2] it was 0.631 nM.

Regarding `COC(=O)N[C@H](C(=O)N1CCC[C@H]1c1ncc(-c2ccc(-c3ccc(-c4cnc([C@@H]5CC6(CN5C(=O)[C@@H](NC(=O)OC)C(C)C)OCCCO6)[nH]4)cc3)cc2)[nH]1)C(C)C`, the EC50 was 0.00794 nM in the experiment with Hepatitis C virus [1] and 0.0251 nM in the experiment on Hepatitis C virus [2].

Take `COC(=O)N[C@@H](C)C(=O)N1CC2(C[C@H]1c1ncc(-c3ccc(-c4ccc(-c5cnc([C@@H]6CCCN6C(=O)[C@@H](NC(=O)OC)C(C)C)[nH]5)cc4)cc3)[nH]1)OCCCO2`: the EC50 with Hepatitis C virus [1] is 0.02 nM; in the experiment with Hepatitis C virus [2], 0.0794 nM.

With `COC(=O)N[C@H](C(=O)N1CCC[C@H]1c1ncc(-c2ccc(-c3ccc(-c4cnc([C@@H]5CC6(CN5C(=O)[C@@H](NC(=O)OC)C(C)C)OCC(C)(C)CO6)[nH]4)cc3)cc2)[nH]1)C(C)C`, the values for the EC50 with Hepatitis C virus [1] and in the experiment on Hepatitis C virus [2] were 0.00251 nM and 0.794 nM, respectively.

With `COC(=O)N[C@H](C(=O)N1CCC[C@H]1c1ncc(-c2ccc(-c3ccc(-c4cnc([C@@H]5CC6(CN5C(=O)[C@@H](NC(=O)OC)C(C)C)O[C@@H](C)C[C@H](C)O6)[nH]4)cc3)cc2)[nH]1)C(C)C` (some centres not stated), the EC50 is 0.0126 nM with Hepatitis C virus [1] and 2 nM in the experiment on Hepatitis C virus [2].

For `COC(=O)N[C@@H](C)C(=O)N1C(c2ncc(-c3ccc(-c4ccc(-c5cnc([C@@H]6CCCN6C(=O)[C@@H](NC(=O)OC)C(C)C)[nH]5)cc4)cc3)[nH]2)CCC12CCC(F)(F)CC2` (some centres not stated), the values for the EC50 in the experiment on Hepatitis C virus [1] and in the experiment on Hepatitis C virus [2] were 0.01 nM and 0.631 nM, respectively.

As for `COC(=O)N[C@@H](CC(C)C)C(=O)N1C(c2ncc(-c3ccc(-c4ccc(-c5cnc([C@@H]6CCCN6C(=O)[C@@H](NC(=O)OC)C(C)C)[nH]5)cc4)cc3)[nH]2)CCC12CCC(F)(F)CC2` (some centres not stated), the figures for the EC50 in the experiment on Hepatitis C virus [1] and in the experiment on Hepatitis C virus [2] were 0.0126 nM and 2 nM, respectively.

`O=C(NC1CC1)c1ccc(-c2csc(NC(=O)[C@@H]3CCCN3C(=O)OCc3ccccc3)n2)cc1`: the EC50 with Hepatitis C virus [1] was 126 nM; in the experiment with Hepatitis C virus [2], > 20000 nM.

In the case of `O=C(Nc1cccnc1)c1ccc(-c2csc(NC(=O)[C@@H]3COC4(CCOCC4)N3C(=O)OCc3ccccc3)n2)cc1`, the 50% effective concentration (EC50) in the experiment with Hepatitis C virus [1] was 0.251 nM; with Hepatitis C virus [2], > 20000 nM.

Take `CN(C)[C@@H](C(=O)N1CCC[C@H]1c1ncc(-c2ccc(-c3ccc(-c4cnc([C@@H]5COC6(CCOCC6)N5C(=O)OCc5ccccc5)[nH]4)cc3)cc2)[nH]1)c1ccccc1`: the figures for the EC50 in the experiment on Hepatitis C virus [1] and in the experiment on Hepatitis C virus [2] were 0.00631 nM and 1.58 nM, respectively.

On to `COC(=O)N[C@H](C(=O)N1CCC[C@H]1c1ncc(-c2ccc(-c3ccc(-c4cnc([C@@H]5COC6(CCOCC6)N5C(=O)OCc5ccccc5)[nH]4)cc3)cc2)[nH]1)C(C)C`, for which the EC50 in the experiment on Hepatitis C virus [1] is 0.002 nM; in the experiment with Hepatitis C virus [2], 1.58 nM.

For `CC(=O)N1CCC[C@H]1c1ncc(-c2ccc(-c3ccc(-c4cnc([C@@H]5CCCN5C(C)=O)[nH]4)cc3)cc2)[nH]1`, the EC50 in the experiment on Hepatitis C virus [1] is 126 nM; with Hepatitis C virus [2] it was 794 nM.

For `COC(=O)N[C@H](C(=O)N1CCC[C@H]1c1ncc(-c2ccc(-c3ccc(-c4cnc(C5CCC6(CCOCC6)N5C(C)=O)[nH]4)cc3)cc2)[nH]1)C(C)C` (some centres not stated), the EC50 in the experiment on Hepatitis C virus [1] is 0.0126 nM; in the experiment on Hepatitis C virus [2], 0.316 nM.

On to `COC(=O)N[C@H](C(=O)N1CCC[C@H]1c1ncc(-c2ccc(-c3ccc(-c4cnc(C5CCC6(CCC(F)(F)CC6)N5C(C)=O)[nH]4)cc3)cc2)[nH]1)C(C)C` (some centres not stated), for which the values for the EC50 in the experiment on Hepatitis C virus [1] and in the experiment with Hepatitis C virus [2] were 0.1 nM and 25.1 nM, respectively.

Turning to `COC(=O)N[C@H](C(=O)N1CCC[C@H]1c1ncc(-c2ccc(-c3ccc(-c4cnc(C5CCC6(CCOCC6)N5C(=O)OCc5ccccc5)[nH]4)cc3)cc2)[nH]1)C(C)C` (some centres not stated), the EC50 in the experiment on Hepatitis C virus [1] was 0.00631 nM; with Hepatitis C virus [2], 6.31 nM.

Turning to `COC(=O)N[C@H](C(=O)N1CCC[C@H]1c1ncc(-c2ccc(-c3ccc(-c4cnc(C5CCC6(CCS(=O)(=O)CC6)N5C(=O)[C@@H](NC(=O)OC)C(C)C)[nH]4)cc3)cc2)[nH]1)C(C)C` (some centres not stated), the values for the EC50 in the experiment on Hepatitis C virus [1] and in the experiment on Hepatitis C virus [2] were 0.316 nM and 12.6 nM, respectively.

With `COC(=O)N[C@H](C(=O)N1CCC[C@H]1c1ncc(-c2ccc(-c3ccc(-c4cnc(C5CCC6(CCOCC6)N5C(=O)[C@@H](NC(=O)OC)C(C)C)[nH]4)cc3)cc2)[nH]1)C(C)C` (some centres not stated), the EC50 was 0.0631 nM in the experiment with Hepatitis C virus [1] and 1.58 nM in the experiment on Hepatitis C virus [2].

In the case of `COC(=O)N[C@H](C(=O)N1CCC[C@H]1c1ncc(-c2ccc(-c3ccc(-c4cnc(C5CCC6(CCC(F)(F)CC6)N5C(=O)[C@@H](NC(=O)OC)C(C)C)[nH]4)cc3)cc2)[nH]1)C(C)C` (some centres not stated), the EC50 in the experiment with Hepatitis C virus [1] was 0.0158 nM; with Hepatitis C virus [2], 1.58 nM.

Consider `CC[C@H](NC(=O)OC)C(=O)N1C(c2ncc(-c3ccc(-c4ccc(-c5cnc([C@@H]6CCCN6C(=O)[C@@H](NC(=O)OC)C(C)C)[nH]5)cc4)cc3)[nH]2)CCC12CCC(F)(F)CC2` (some centres not stated), for which the EC50 in the experiment on Hepatitis C virus [1] is 0.0158 nM; with Hepatitis C virus [2] it was 1 nM.

For the compound `O=C(Nc1nc(-c2ccccc2)cs1)[C@@H]1CCCN1C(=O)OCc1ccccc1`, the figures for the EC50 with Hepatitis C virus [1] and in the experiment on Hepatitis C virus [2] were 2510 nM and > 20000 nM, respectively.

Consider `COC(=O)N[C@H](C(=O)N1CC2(CC1c1ncc(-c3ccc(-c4ccc(-c5cnc([C@@H]6CCCN6C(=O)[C@@H](NC(=O)OC)C(C)C)[nH]5)cc4)cc3)[nH]1)CN(S(C)(=O)=O)C2)C(C)C` (mixture of isomers), for which the EC50 in the experiment on Hepatitis C virus [1] was 0.0501 nM; in the experiment on Hepatitis C virus [2] it was 1.26 nM.

For `COC(=O)N[C@H](C(=O)N1CC2(CC1c1ncc(-c3ccc(-c4ccc(-c5cnc([C@@H]6CCCN6C(=O)[C@@H](NC(=O)OC)C(C)C)[nH]5)cc4)cc3)[nH]1)CC(F)(F)C2)C(C)C` (mixture of isomers), the results for the EC50 in the experiment on Hepatitis C virus [1] and in the experiment with Hepatitis C virus [2] were 0.00398 nM and 0.1 nM, respectively.

Consider `COC(=O)N[C@H](C(=O)N1CC2(CCN(C(=O)OC)CC2)CC1c1ncc(-c2ccc(-c3ccc(-c4cnc([C@@H]5CCCN5C(=O)[C@@H](NC(=O)OC)C(C)C)[nH]4)cc3)cc2)[nH]1)C(C)C` (mixture of isomers), for which the EC50 was 0.0158 nM in the experiment on Hepatitis C virus [1] and 0.794 nM in the experiment on Hepatitis C virus [2].

Turning to `COC(=O)N[C@H](C(=O)N1CC2(CCOCC2)CC1c1ncc(-c2ccc(-c3ccc(-c4cnc([C@@H]5CCCN5C(=O)[C@@H](NC(=O)OC)C(C)C)[nH]4)cc3)cc2)[nH]1)C(C)C` (mixture of isomers), the EC50 is 0.0158 nM in the experiment on Hepatitis C virus [1] and 0.0631 nM with Hepatitis C virus [2].

In the case of `COC(=O)N[C@H](C(=O)N1CC2(CC1c1ncc(-c3ccc(-c4ccc(-c5cnc([C@@H]6CCCN6C(=O)[C@@H](NC(=O)OC)C(C)C)[nH]5)cc4)cc3)[nH]1)CN(C(=O)OC(C)(C)C)C2)C(C)C` (mixture of isomers), the EC50 in the experiment with Hepatitis C virus [1] is 0.01 nM; with Hepatitis C virus [2], 1 nM.

As to `COC(=O)N[C@H](C(=O)N1CC2(CNC2)CC1c1ncc(-c2ccc(-c3ccc(-c4cnc([C@@H]5CCCN5C(=O)[C@@H](NC(=O)OC)C(C)C)[nH]4)cc3)cc2)[nH]1)C(C)C` (mixture of isomers), the EC50 with Hepatitis C virus [1] is 0.126 nM; with Hepatitis C virus [2], 3.16 nM.

With `COC(=O)N[C@H](C(=O)N1CC2(CC1c1ncc(-c3ccc(-c4ccc(-c5cnc([C@@H]6CCCN6C(=O)[C@@H](NC(=O)OC)C(C)C)[nH]5)cc4)cc3)[nH]1)CN(C(C)=O)C2)C(C)C` (mixture of isomers), the values for the EC50 in the experiment with Hepatitis C virus [1] and in the experiment on Hepatitis C virus [2] were 0.158 nM and 1.26 nM, respectively.

As to `COC(=O)N[C@H](C(=O)N1CC2(CC1c1ncc(-c3ccc(-c4ccc(-c5cnc([C@@H]6CCCN6C(=O)[C@@H](NC(=O)OC)C(C)C)[nH]5)cc4)cc3)[nH]1)CN(C(=O)OC)C2)C(C)C` (mixture of isomers), the values for the EC50 in the experiment on Hepatitis C virus [1] and in the experiment with Hepatitis C virus [2] were 0.0501 nM and 2 nM, respectively.

For `CNC(=O)N1CC2(CC(c3ncc(-c4ccc(-c5ccc(-c6cnc([C@@H]7CCCN7C(=O)[C@@H](NC(=O)OC)C(C)C)[nH]6)cc5)cc4)[nH]3)N(C(=O)[C@@H](NC(=O)OC)C(C)C)C2)C1` (mixture of isomers), the EC50 in the experiment on Hepatitis C virus [1] is 0.251 nM; in the experiment with Hepatitis C virus [2], 6.31 nM.

`COC(=O)N[C@H](C(=O)N1CC2(CCS(=O)(=O)CC2)CC1c1ncc(-c2ccc(-c3ccc(-c4cnc([C@@H]5CCCN5C(=O)[C@@H](NC(=O)OC)C(C)C)[nH]4)cc3)cc2)[nH]1)C(C)C` (mixture of isomers): the figures for the half-maximal effective concentration (EC50) in the experiment with Hepatitis C virus [1] and in the experiment on Hepatitis C virus [2] were 0.0398 nM and 0.398 nM, respectively.

As to `COC(=O)N[C@H](C(=O)N1CC2(CCN(C(=O)OC(C)(C)C)CC2)CC1c1ncc(-c2ccc(-c3ccc(-c4cnc([C@@H]5CCCN5C(=O)[C@@H](NC(=O)OC)C(C)C)[nH]4)cc3)cc2)[nH]1)C(C)C` (mixture of isomers), the figures for the EC50 in the experiment with Hepatitis C virus [1] and with Hepatitis C virus [2] were 0.0398 nM and 10 nM, respectively.

Regarding `COC(=O)N[C@H](C(=O)N1CC2(CCNCC2)CC1c1ncc(-c2ccc(-c3ccc(-c4cnc([C@@H]5CCCN5C(=O)[C@@H](NC(=O)OC)C(C)C)[nH]4)cc3)cc2)[nH]1)C(C)C` (mixture of isomers), the 50% effective concentration (EC50) was 1.58 nM with Hepatitis C virus [1] and > 31.6 nM with Hepatitis C virus [2].

Take `COC(=O)N[C@H](C(=O)N1CC2(CCN(C(C)=O)CC2)CC1c1ncc(-c2ccc(-c3ccc(-c4cnc([C@@H]5CCCN5C(=O)[C@@H](NC(=O)OC)C(C)C)[nH]4)cc3)cc2)[nH]1)C(C)C` (mixture of isomers): the EC50 in the experiment on Hepatitis C virus [1] is 0.2 nM; in the experiment with Hepatitis C virus [2], 10 nM.
